Measured values from the METLIN SMRT retention time set (Domingo-Almenara et al. 2019).

Experiment: gradient 5% acetonitrile 3 min, to 50% in 2 min, to 85% in 15 min, held 3 min, 100 µL/min
Conditions: column: Zorbax Extend-C18 2.1 x 50 mm; eluents: water / acetonitrile, 0.1% formic acid
Outline: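 Standards, all pure, were combined into mixtures of ~100 molecules and run at 100 μL/min on a Zorbax Extend-C18 column (2.1 × 50 mm, 1.8 μm) with water and acetonitrile, each containing 0.1% formic acid. A coupled quadrupole time-of-flight mass spectrometer operated in positive and negative ionization mode. Retention time values come from computationally picked adduct peaks, each inspected manually.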

Structure (SMILES) | RP-LC retention time [s]
Cc1cccc(NC(=O)c2cc(C(C)(C)C)n3nccc3n2)c1 | 1240
COCC1(O)CCOC2(CCN(Cc3cccc(Cl)c3)CC2)C1 (centres undefined) | 612
Cc1ncsc1C1N(C2CCN(C(=O)Nc3ccccc3)CC2)C(=O)C12CCCC2 (centres undefined) | 749
CC1(C(=O)N2CC(F)(F)C[C@H]2c2nc(-c3ncccn3)no2)CC1 | 674
COc1cccc(-c2ccc3nc(N4CCC(C(=O)N5CCCC5)CC4)sc3n2)c1 | 912
CCCCNC(=O)C1CC(=O)N(c2n[nH]c3cccc(F)c23)C1 (centres undefined) | 660
CCSc1nnc(-c2nn(C)c3c2CN(S(=O)(=O)c2cccc(Cl)c2C)CC3)n1CC | 1050
CC(C)CC(=O)Nc1ccc(-n2cnc(C(=O)N3CC(C)CC(C)C3)c2)nc1 (centres undefined) | 839
COc1cccc(N2CCN(c3ccnc(SCC(=O)Nc4cc(OC)ccc4OC)n3)CC2)c1 | 818
Clc1nnc(N2CCSCC2)c2ccccc12 | 845
COc1cccc(-c2nnc(-c3ccc(-n4ccnc4)nc3)o2)c1 | 654
Cc1ccc(NC(=O)c2ccc3[nH]c4c(c3c2)CN(C(=O)C2CCC2)CC4)cc1 | 864
CC1=C(c2ccc(F)cc2)S(=O)(=O)N=C1N1CCCN(C(=O)NCCC(C)C)CC1 | 837
CCC1(C(=O)Nc2ccc(OC)cc2)CCCCC(=O)N1 (centres undefined) | 666
Cc1nc(N2CCOCC2)c2c(C(=O)Nc3cccc(C(F)(F)F)c3)c(C)oc2n1 | 955
O=C(O)CCC1CCN(S(=O)(=O)c2cccc(F)c2)CC1 | 765
COc1cc(-c2nc3ccc(C)cn3c2Nc2ccc3c(c2)OCCO3)ccc1O | 636
O=S(=O)(c1c(F)cccc1F)N1CCC2(CC1)OCCS2 | 860
CCCCC1CCC(C(=O)Nc2nc(-c3ccc4c(c3)N(C)C(=O)CO4)c(C)s2)CC1 (centres undefined) | 1410
COC(=O)c1cccc(NC(=O)c2sc(-c3cn(C)c4ncccc34)nc2C)c1 | 927
CN(C1CCc2nn(CC3CC3)c(=O)n2CC1)S(=O)(=O)c1ccccc1C(F)(F)F (centres undefined) | 831
O=C(NC1CC1)c1ccc(N2CCC(NCc3ccc(F)cc3)C2)nc1 (centres undefined) | 553
Oc1c(C(c2ccccn2)N2CCN(c3ccccc3F)CC2)ccc2cccnc12 (centres undefined) | 567

Structure (SMILES) | RP-LC retention time [s]
COc1ccc(N2C(=O)CC(c3ccc(OC)c(OC)c3)CC2=O)cc1Cl | 845
O=C(O)c1ccc(Cn2cnc3ccccc32)o1 | 512
COC(=O)c1ncn2c1C(=O)N(Cc1ccc(C)cc1)C(C)(C(=O)NCc1ccc(C)cc1)C2 (centres undefined) | 788
COc1ccc(-c2cn3c(CC(=O)N4CCc5ccccc5C4)csc3n2)cc1OC | 754
COC(=O)C(C)n1cccc1-c1nc(-c2ccncc2)no1 (centres undefined) | 840
Cc1cc(NC(=O)CCCSc2ccc(F)cc2)no1 | 838
Cc1ccc(NC(=O)N2CCCC(C)(C(=O)NCc3ccccc3C)C2)cc1Cl (centres undefined) | 1080
O=C(Nc1nc2c(s1)CN(C(=O)Nc1ccc(Cl)c(Cl)c1)CC2)c1cnccn1 | 811
CCN1c2ccc(F)cc2C(=O)NC12CCN(C(=O)Cc1ccc(Cl)cc1)CC2 | 848
COc1ccc(CN2C(=O)C3(CCOCC3)CC2c2nnnn2C(C)(C)C)c(OC)c1 (centres undefined) | 734
COc1cccc(CNC(=O)c2cn3cc(Cl)ccc3n2)c1OC | 824
Cc1ccc(S(=O)(=O)N2CC(c3nnc(-c4ccncc4)o3)C3(CCOCC3)C2)cc1 (centres undefined) | 697
Cc1ccc(-c2cc3c(=O)n(Cc4noc(CN5CCCCC5C)n4)ccn3n2)cc1C (centres undefined) | 730
Cn1cc(-c2nc(C(=O)NCc3ccc(F)cc3Cl)cs2)c2cccnc21 | 1010
Cc1nc(-c2noc(-c3ccccc3)n2)cn1CC(=O)NCc1cccc(Cl)c1 | 866
CO[C@H]1C(=O)N(C2CCN(C(=O)Nc3ccc4c(c3)OCCO4)CC2)[C@H]1c1ccncc1 | 582
O=S(=O)(c1cccs1)N1CCN(c2cnn3c(C4CC4)nnc3c2)CC1 | 683
CCCCOc1ccc(CNC(=O)CSc2nccnc2Oc2ccccc2)cc1 | 1130
CCOc1ccccc1NC(=O)CN1C(=O)CCc2cc(Br)ccc21 | 1000
O=C(Cn1nc(N2CCSCC2)c2ccccc2c1=O)Nc1ccc2c(c1)OCCO2 | 818
CN(C)C[C@@H]1CN(C2CCOCC2)C[C@H]1NS(=O)(=O)Cc1cccc(F)c1 | 553
COc1ccc(-c2nnc(Cc3nc(-c4cccnc4)no3)o2)cc1 | 755
COc1cc(Cl)c(NC(=O)C2CCN(S(=O)(=O)c3cn(C(C)C)cn3)CC2)c(OC)c1 | 797

Structure (SMILES) | RP-LC retention time [s]
CCc1ccc(CNC(=O)Cc2c(C(=O)O)c(C)cn2C)cc1 | 815
CCC1CCCCN1CCCNC(=O)CCc1cc2cc(C)ccc2[nH]c1=O (centres undefined) | 600
Cc1nc(OCC(=O)NCc2ccc(N(C)C)cc2)c2c(C)c(C)oc2n1 | 653
CN1C(=O)c2cc(C(=O)NCc3cccc(F)c3)nn2CC1(C)C(=O)NC1CCCC1 (centres undefined) | 750
Cc1c(Cl)cccc1NC(=O)N1CCN(CCn2c(C(F)(F)F)nc3cccnc32)CC1 | 666
CN(C)C(=O)c1cn(C2CN(S(=O)(=O)c3cccc4nsnc34)C2)nn1 | 657
CCCN(CC1CCOC1)C(=O)c1ccc(F)c(Cl)c1 (centres undefined) | 842
CN1CCC2(CC1)CN(C(=O)Cn1c(=O)oc3ccccc31)Cc1ccccc1O2 | 644
O=c1cccc2n1CC1CC2CN(Cc2nnc(-c3cccc(Br)c3)o2)C1 (centres undefined) | 803
O=C(CN1C(=O)COc2ccccc2C1=O)c1cccc([N+](=O)[O-])c1 | 863
CCOC(=O)C1CCCN(C(=O)C2CCN(S(=O)(=O)c3ccc4c(ccn4CC)c3)CC2)C1 (centres undefined) | 849
O=C(Cn1cnc2c(nc3n2CCCCC3)c1=O)N1CCC(Cc2ccccc2)CC1 | 764
Cc1nc2ccn(Cc3ccco3)c(=O)c2cc1C(=O)NCCCN1CCOCC1 | 578
O=c1c(NCCc2ccncc2)nc2ccncc2n1Cc1ccccc1 | 553
Cc1ccc(-c2cc(C(=O)NCCCN3CCc4ccccc4C3)c(C)[nH]2)cc1C | 751
COc1cc(OC)cc(-c2nc(-c3cn(-c4cccc(F)c4)nn3)no2)c1 | 1090
CCOc1ccccc1NC(=O)Cn1nnc(C(=O)Nc2cc(Cl)ccc2OC)c1N | 970
COc1ccccc1CC1C(=O)Nc2ccc(Cl)cc21 (centres undefined) | 948
COc1ccc(NC(=O)N2CCCC2c2nc(-c3ccccc3OC)no2)cc1 (centres undefined) | 826
Cn1c(C2CCN(S(=O)(=O)c3ccccc3Cl)CC2)cc(=O)n2nccc12 | 708
CCOc1ccc(CC(=O)NC2CCN(c3cc(-c4cccs4)[nH]n3)C2)cc1OCC (centres undefined) | 727
COC(=O)c1c(-c2ccc(Cl)cc2)noc1NCCN1CCOCC1 | 660
Cn1nc(-c2ccc(NC(=O)c3cccc4ccccc34)cc2)ccc1=O | 763

Structure (SMILES) | RP-LC retention time [s]
Cc1ccc(C)c(-n2ccn(Cc3nc(-c4ccccc4C)no3)c(=O)c2=O)c1 | 953
CCOC(=O)Cn1c(C2CCCN2C(=O)CC)nc2ccccc21 (centres undefined) | 613
CCOc1cccc(-c2noc(CCn3nc(-c4ccc(Cl)cc4)ccc3=O)n2)c1 | 1130
O=C(Nc1nc2c(s1)CN(Cc1ccccc1)CC2)c1cccc(N2C(=O)CCC2=O)c1 | 548
CC1CCN(S(=O)(=O)c2ccc3c(c2)CCCC(=O)N3CC(=O)N2CCc3ccccc3C2)CC1 | 1010
COCCNC(=O)C1CCCN(C(=O)c2[nH]c(C)cc2C)C1 (centres undefined) | 644
C=CCN1CCN(C(=O)c2cn(-c3ccc(-c4nc(C(C)(C)C)no4)cn3)cn2)CC1 | 680
COC(=O)c1ccccc1Nc1c(-c2cccc(O)c2)nc2cnccn12 | 792
O=C1CCCN1c1ccc(Cn2cc(-c3nc(-c4cccc(F)c4)no3)ccc2=O)cc1 | 608
O=C(/C=C/c1cccc(S(=O)(=O)Nc2ccccc2)c1)NO | 679
CC(=O)Nc1ccc(C2(C(=O)NCc3cccc(Cl)c3)CCC2)cc1 | 785
CNC(=O)c1ccccc1C(=O)NCCc1nc(-c2cnccn2)no1 | 555
CCc1ccc(Nc2nc(C(=O)N3CCCCCC3)nc3ccccc23)cc1 | 910
COc1ccc(C(=O)Nc2nsc(-c3ccccc3)n2)cc1 | 778
COc1ccccc1NC(=O)N1CCC(CNS(=O)(=O)c2cc(C)ccc2C)CC1 | 735
O=C(CCc1cc(Cl)no1)N1CCCCC1c1noc(COCC2CC2)n1 (centres undefined) | 934
O=C(CCn1c(=O)oc2ccccc21)N1CC(F)(F)C[C@H]1COc1ccccc1 | 1000
COc1ccccc1NC(=O)N1CCCC1c1cc(C(C)C)on1 (centres undefined) | 950
CCN(CC)c1nc2cc(C(=O)OC)ccc2c(=O)n1-c1cc(OC)cc(OC)c1 | 1090
Cc1nnc(-c2coc(S(=O)(=O)N3CCCCC3)c2)o1 | 767
